We go through two compounds from ChEMBL document CHEMBL1201862, “PubChem BioAssay data set” (2004).

Test systems include HL-60; MCF7; SNB-19; MOLT-4; NCI/ADR-RES; RXF 393; Malme-3M; OVCAR-5; HCT-116; UACC-62; ACHN; HCT-15; CAKI-1; OVCAR-8; HCC 2998; EKVX; SR; HOP-92; U-251; NCI-H23.
What all share (assay): growth of human tumour cells (NCI), 48 h

Each structure is given as a SMILES string.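 Each compound was tested at five concentrations against cells in 96-well plates for 48 hours. Here, GI50 denotes the concentration required for 50% inhibition of growth.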 Calls of active or inactive are those of the source. Cut-off read from the data, not from the text of the source: active = GI50 up to about 1.1 µM and inactive = higher.

For `O=C(O)c1cc2ccccc2c(O)c1O`, the GI50 is 19.4 µM (inactive) in the assay on HL-60; 13.5 µM (inactive) in the assay with MCF7; 17.9 µM (inactive) in the assay with SNB-19; 27.5 µM (inactive) in the assay on MOLT-4; 19.4 µM (inactive) in the assay with NCI/ADR-RES; 17.3 µM (inactive) in the assay with RXF 393. For the same compound, the GI50 with Malme-3M is 1.8 µM (inactive); in the assay on OVCAR-5 it was 16.9 µM (inactive); in the assay on HCT-116, 16.8 µM (inactive); in the assay with UACC-62, 5.98 µM (inactive); with ACHN, 16.9 µM (inactive); in the assay on HCT-15 it was 19.7 µM. For the same compound, the GI50 was 17.3 µM (inactive) in the assay with CAKI-1; 12.6 µM (inactive) in the assay with OVCAR-8; 18.8 µM (inactive) in the assay with HCC 2998; 23.4 µM (inactive) in the assay on EKVX; > 45.4 µM (inactive) with SR; > 40.1 µM (inactive) with HOP-92. The figures for the GI50 with U-251 and in the assay on NCI-H23 were 16.8 µM (inactive) and 7.29 µM (inactive), respectively.
Take `CC1=NC(=Cc2cc(Br)cc(Br)c2)C(=O)N1n1c(-c2ccccc2)nc2ccccc2c1=O`: the GI50 in the assay with HL-60, in the assay on MCF7, in the assay with SNB-19, in the assay on MOLT-4, in the assay with NCI/ADR-RES and in the assay with RXF 393 was > 100 µM (inactive) each time. Further, the GI50 with Malme-3M was > 100 µM (inactive); in the assay with OVCAR-5, > 100 µM (inactive); in the assay with HCT-116, > 100 µM (inactive); with UACC-62, > 100 µM (inactive); in the assay with ACHN it was > 100 µM (inactive); in the assay with HCT-15, above 100 µM. Moreover, the GI50 in the assay on CAKI-1 was > 100 µM (inactive); in the assay with OVCAR-8, > 100 µM (inactive); in the assay with HCC 2998, > 100 µM (inactive); with EKVX it was > 100 µM (inactive); in the assay with SR, 55.2 µM (inactive); in the assay with HOP-92 it was > 100 µM (inactive). For the same compound, the GI50 in the assay on U-251 and in the assay on NCI-H23 was > 100 µM (inactive) in each case.
